Results as given in patent publication US20050250801A1, “Method of treating cancer with azaspirane compositions” (priority 2003, published 2005).

Experiments:
[1] = tested on: CaCo-2 cells; assay: Inhibition of proliferation of CaCo-2 cells (WST-1, Example 8); type: cell-based; settings: Homo sapiens, 12 hours; for inhibition at 5 µM: read-out: % Inhibition of Proliferation at 5 μM Compound
Experimental: The effect of N,N,-diethyl-8,8-dipropyl-2-azaspiro[4,5]decane-2-propanamine dimaleate (Compound 1) and other analogs (structures shown in Table 7) on proliferation of CaCo-2, a human colon carcinoma cell line, were evaluated in the following manner. Cell proliferation was measured by WST-1 dye conversion to Formazan assay using a proliferation kit from BioVision, CA. The procedure used was essentially the same as described in the manufacture's instructions. Briefly, cells were grown for 7 days until they formed semi-confluent monolayers. On day 7, cells were trypsinized and re-suspended in 96-well plates at a concentration of approximately 50,000 cells/well. […] A solution of 10 μl of WST-1 dye per well was added and plates were read after 4 hours at 440 and 600 nm using an ELISA plate reader. The absorbance at 440-600 nm is directly proportion to the number of proliferating cells. All samples were measured in duplicate and results were expressed as an average of two determinations.

[2] = tested on: chorioallantoic membrane (CAM); assay: Anti-angiogenesis CAM assay; type: in vivo, White Leghorn eggs; settings: Dose per egg 100 μg; 48 hour exposure; ten eggs
Experimental: The dosing was effected by pipetting 40 μl of the indicated solution onto a 13 mm round Thermanox® coverslip and allowing it to air dry. After the material appeared dry, the coverslip was placed onto the chorioallantoic membrane (CAM) of each egg insuring contact of the dried test article with the CAM. After dosing, the eggs were returned to the incubator for approximately 48 hours. Following the 48 hour exposure period, the eggs were removed from the incubator, observed for viability, and the exposed area under the coverslip was examined for loss of vasculature.

Row | SMILES | IC50 [1] [µM] | inhibition at 5 µM [1] [%] | Dead Eggs [2]
1 | CN(C)CCCN1CCC2(CCC(C(C)(C)C)CC2)CC1 [A] | ~20 | 45 | 
2 | CN(C)CCCN1CCC2(CCC(C)(C)CC2)C1 [E] | > 20 | 0 | 
3 | CN(C)CCCN1CCC2(CCCCC2)CC1 [D] | > 20 | 0 | 
4 | CN(C)CCCN1CCC2(CCC(C(C)(C)C)CC2)C1 (stereo not shown) [Compound C] | > 20 | 15 | 
5 | O=C1CCC(N2C(=O)c3ccccc3C2=O)C(=O)N1 (stereo not shown) [Thalidomide, reference compound] |  |  | 0
6 | CN(C)CCCN1CCC2(CCOCC2)C1 [B] | > 20 | 0 | 

Second part, led by results:

Row | IC50 [1] [µM] | SMILES | inhibition at 5 µM [1] [%] | Dead Eggs [2]
7 | ~3.5 | CCCC1(CCC)CCC2(CCN(CCCCCCN(C)C)C2)CC1 [L] | 76 | 
8 | ~2.5 | CCCCC1(CCCC)CCC2(CCN(CCCN(C)C)C2)CC1 [J] | 84 | 
9 | ~2.5 | CCCCC1(CC)CCC2(CCN(CCCN(C)C)C2)CC1 (stereo not shown) [K] | 81 | 
10 | ~4 | CCCC1(CCC)CCC2(CCN(CCCN3CCCCC3)C2)CC1 [M] | 67 | 
11 | ~2.5 | CCCCCC1(CCCCC)CCC2(CCN(CCCN(C)C)CC2)CC1 [G] | 86 | 
12 | ~3.5 | CCCCCCCCCCC1CCC2(CC1)CCN(CCCN(C)C)C2 (stereo not shown) [H] | 73 | 
13 | > 20 | CCC1(CC)CCC2(CCN(CCCN(C)C)C2)CC1 [F] | 35 | 
